Reference: article PMC6522473, “The Pseudomonas aeruginosa lectin LecB binds to the exopolysaccharide Psl and stabilizes the biofilm matrix” (Nature Communications, 2019)

Target: T1, LecB (Pseudomonas aeruginosa, UniProt Q9HYN5)
T1 construct: purified LecB overexpressed in P. aeruginosa (lecB from PAO1, pJNLecB); homotetramer of 114 amino acid monomers
Test: ITC ([…] K, three titrations)
Type: binding

T1 sequence (Q9HYN5 entry or part of it): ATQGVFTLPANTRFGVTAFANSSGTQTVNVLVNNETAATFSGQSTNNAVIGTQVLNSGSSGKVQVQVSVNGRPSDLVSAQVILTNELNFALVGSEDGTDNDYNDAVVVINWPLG

Structure (SMILES) | Kd [µM]
OC[C@H]1O[C@H](O[C@@H]2C(O)O[C@H](CO)[C@@H](O)[C@@H]2O)[C@@H](O)[C@@H](O)[C@@H]1O (stereo partly drawn) [α-1,2′ mannobiose] | 26.6 ± 2.61
OC[C@H]1O[C@H](O[C@H]2[C@H](O)[C@@H](CO)OC(O)[C@H]2O)[C@@H](O)[C@@H](O)[C@@H]1O (stereo partly drawn) [α-1,3′ mannobiose] | 33.6 ± 7.18
